These results are taken from patent US9492552B2, “Injectable aqueous pharmaceutical compositions comprising a cyclodextrin, a hydrophobic drug, a co-solvent, and a preservative” (JUROX PTY LTD, priority 2011, dated 2016).

This series is described as follows: Precipitation of alfaxalone from alfaxalone/2-hydroxypropyl-β-cyclodextrin complex solution on adding preservative without co-solvent. Conditions: upwards to 1% w/v (typical content); no co-solvent. Format: physicochemical.

Where only a bound is given, the exact number is not on record here.

Regarding `OCc1ccccc1` [benzyl alcohol], the “benzyl alcohol content at which significant precipitation occurs (titration)” value is reported as no less than 0.2 % w/v.
